{
  "source": "paper PMC6104039",
  "about": "(Nature Communications, 2018)",
  "tested_on": "cerebellum",
  "experiment": "Ceramide, SM and HexCer levels in cerebellum;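 for Cer 18:1/18:0 content of cerebellum: pmol per mg cerebellum tissue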;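 for Cer 18:1/24:0 content of cerebellum: pmol per mg cerebellum tissue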;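 for Cer 18:1/24:1 content of cerebellum: pmol per mg cerebellum tissue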;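 for Cer 18:2/18:0 content of cerebellum: pmol per mg cerebellum tissue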;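 for HexCer 18:1 content of cerebellum: pmol per mg cerebellum tissue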;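 for HexCer 20:1 content of cerebellum: pmol per mg cerebellum tissue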;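 for HexCer 22:1 content of cerebellum: pmol per mg cerebellum tissue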;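 for HexCer 24:0 content of cerebellum: pmol per mg cerebellum tissue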;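 for SM 32:1 content of cerebellum: pmol per mg cerebellum tissue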;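 for SM 34:2 content of cerebellum: pmol per mg cerebellum tissue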;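 for SM 36:1 content of cerebellum: pmol per mg cerebellum tissue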;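 for SM 36:2 content of cerebellum: pmol per mg cerebellum tissue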;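 for SM 40:1 content of cerebellum: pmol per mg cerebellum tissue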;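 for SM 40:2 content of cerebellum: pmol per mg cerebellum tissue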;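 for SM 42:1 content of cerebellum: pmol per mg cerebellum tissue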;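 for SM 42:2 content of cerebellum: pmol per mg cerebellum tissue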",
  "format": "in vivo, mice",
  "text": "Supplementary Figure 7. […] Ceramide, SM, and HexCer […]\nlevels in the cerebellum of vehicle- or P053-treated mice on a chow or HFD. N = 10 mice per group, except for chow vehicle group (n = 9). Mean ± SEM shown. No lipids were […]\ncomparisons. C18:0 HexCer was 45% lower in the P053-treated compared to the vehicle-treated HFD group (unadjusted P value = 0.02; adjusted value P = 0.16). Raw data for these figures is provided in Supplementary Data File 1.",
  "key": {"[1]": {"details": "Chow + P053, individual mice, raw data for Supplementary Figure 7"}, "[2]": {"details": "HFD + P053, individual mice, raw data for Supplementary Figure 7"}},
  "note": "Where “and” joins values, the source holds several entries; their conditions need not be identical. Identical values can stand only once.",
  "data": [
    {"smiles": "C[C@@](N)(CO)CCc1ccc(OCc2ccc(Cl)c(Cl)c2)cc1", "note": "[P053, (S)-2-amino-4-(4-(3,4-dichlorobenzyloxy)phenyl)-2-methylbutan-1-ol]", "values": [
      {"measurement": "SM 40:2 content of cerebellum", "setting": "[1]", "value": "51.3559 and 98.4003 and 64.6125 and 113.428 and 67.3016 and 27.1328 and 51.0354 and 51.6641 and 60.1105 and 65.3939"},
      {"measurement": "SM 42:1 content of cerebellum", "setting": "[1]", "value": "47.6271 and 371.292 and 288.623 and 388.513 and 255.841 and 158.489 and 203.273 and 296.49 and 332.331 and 358.331"},
      {"measurement": "SM 42:2 content of cerebellum", "setting": "[1]", "value": "660.19 and 1132.13 and 807.257 and 1283.01 and 802.501 and 434.477 and 634.337 and 659.388 and 719.281 and 714.687"},
      {"measurement": "Cer 18:1/16:0 content of cerebellum", "setting": "[2]", "value": "2.762 and 1.437 and 5.744 and 2.262 and 3.928 and 1.548 and 1.88 and 7.07 and 1.652 and 5.347"},
      {"measurement": "Cer 18:1/18:0 content of cerebellum", "setting": "[2]", "value": "128.546 and 82.2707 and 288.623 and 116.318 and 172.743 and 86.572 and 112.409 and 311.979 and 100.825 and 239.53"},
      {"measurement": "Cer 18:1/20:0 content of cerebellum", "setting": "[2]", "value": "9.681 and 8.421 and 28.463 and 10.3564 and 18.7569 and 5.821 and 8.037 and 34.6254 and 7.548 and 24.475"},
      {"measurement": "Cer 18:1/22:0 content of cerebellum", "setting": "[2]", "value": "15.9533 and 14.996 and 57.2919 and 21.4543 and 38.4094 and 10.5899 and 9.986 and 74.6469 and 9.154 and 46.3627"},
      {"measurement": "Cer 18:1/24:0 content of cerebellum", "setting": "[2]", "value": "36.0277 and 35.1841 and 132.359 and 47.5021 and 88.9579 and 25.0017 and 22.1183 and 201.705 and 15.8687 and 131.28"},
      {"measurement": "Cer 18:1/24:1 content of cerebellum", "setting": "[2]", "value": "97.7004 and 105.297 and 370.02 and 145.116 and 239.743 and 56.9618 and 60.5027 and 471.673 and 50.6294 and 252.902"},
      {"measurement": "Cer 18:2/18:0 content of cerebellum", "setting": "[2]", "value": "5.2575 and 7.26 and 15.0915 and 8.468 and 10.666 and 4.461 and 4.156 and 21.6288 and 3.082 and 13.66"},
      {"measurement": "HexCer 16:0 content of cerebellum", "setting": "[2]", "value": "8.934 and 17.284 and 8.364 and 13.8417 and 14.6417 and 7.1271 and 5.255 and 9.259 and 5.878 and 7.654"},
      {"measurement": "HexCer 18:0 content of cerebellum", "setting": "[2]", "value": "106.702 and 382.139 and 122.466 and 271.752 and 258.221 and 146.382 and 115.813 and 146.018 and 61.4581 and 111.285"},
      {"measurement": "HexCer 18:1 content of cerebellum", "setting": "[2]", "value": "19.0333 and 51.9273 and 16.2259 and 33.0148 and 32.5326 and 25.3913 and 23.9698 and 16.5527 and 15.5439 and 16.7312"},
      {"measurement": "HexCer 20:0 content of cerebellum", "setting": "[2]", "value": "25.9921 and 81.8108 and 22.9498 and 52.8818 and 49.4884 and 37.7023 and 27.8092 and 23.4231 and 13.0014 and 19.1491"},
      {"measurement": "HexCer 20:1 content of cerebellum", "setting": "[2]", "value": "2.413 and 5.45 and 1.502 and 2.714 and 3.093 and 3.36 and 3.204 and 0.8678 and 1.872 and 1.364"},
      {"measurement": "HexCer 22:0 content of cerebellum", "setting": "[2]", "value": "505.659 and 1204.39 and 420.547 and 840.893 and 660.332 and 669.272 and 501.784 and 427.814 and 264.729 and 391.884"},
      {"measurement": "HexCer 22:1 content of cerebellum", "setting": "[2]", "value": "79.5132 and 228.816 and 78.1356 and 158.552 and 150.676 and 92.9587 and 63.0534 and 66.2392 and 42.1951 and 49.044"},
      {"measurement": "HexCer 24:0 content of cerebellum", "setting": "[2]", "value": "2652.92 and 5943.48 and 2280.7 and 4343.65 and 3299.69 and 3289.82 and 2658.72 and 2324.32 and 1408.65 and 2090.2"},
      {"measurement": "HexCer 24:1 content of cerebellum", "setting": "[2]", "value": "5027.14 and 9363.75 and 4512.26 and 7271.57 and 6673.35 and 6052.94 and 5424.24 and 3829.42 and 3500.76 and 3500.55"},
      {"measurement": "SM 32:1 content of cerebellum", "setting": "[2]", "value": "9.976 and 12.4114 and 9.047 and 10.2584 and 10.5601 and 10.6625 and 8.862 and 9.432 and 8.153 and 9.013"},
      {"measurement": "SM 34:1 content of cerebellum", "setting": "[2]", "value": "133.106 and 161.415 and 90.4808 and 115.694 and 117.777 and 135.794 and 123.089 and 72.6388 and 98.8077 and 73.1632"},
      {"measurement": "SM 34:2 content of cerebellum", "setting": "[2]", "value": "5.986 and 10.8404 and 8.948 and 9.3676 and 9.279 and 9.028 and 5.849 and 7.187 and 3.938 and 7.222"},
      {"measurement": "SM 36:1 content of cerebellum", "setting": "[2]", "value": "437.801 and 529.096 and 247.962 and 355.417 and 343.012 and 490.447 and 544.072 and 175.073 and 405.398 and 201.504"},
      {"measurement": "SM 36:2 content of cerebellum", "setting": "[2]", "value": "35.911 and 106.46 and 51.4739 and 67.513 and 67.8953 and 51.6927 and 57.9458 and 40.9288 and 32.7758 and 44.6146"},
      {"measurement": "SM 38:1 content of cerebellum", "setting": "[2]", "value": "151.251 and 204.797 and 99.8821 and 137.133 and 146.282 and 182.882 and 197.347 and 79.7159 and 145.438 and 91.2461"},
      {"measurement": "SM 38:2 content of cerebellum", "setting": "[2]", "value": "6.1474 and 11.1901 and 6.7471 and 8.325 and 8.851 and 10.1186 and 6.052 and 4.124 and 3.938 and 4.099"},
      {"measurement": "SM 40:1 content of cerebellum", "setting": "[2]", "value": "183.889 and 372.913 and 177.074 and 235.958 and 281.655 and 224.359 and 174.632 and 162.333 and 129.812 and 151.975"},
      {"measurement": "SM 40:2 content of cerebellum", "setting": "[2]", "value": "54.9137 and 116.436 and 59.8853 and 73.425 and 86.9536 and 64.465 and 34.4644 and 47.3579 and 33.4194 and 39.329"},
      {"measurement": "SM 42:1 content of cerebellum", "setting": "[2]", "value": "210.79 and 460.407 and 223.848 and 278.666 and 328.3 and 236.404 and 186.283 and 198.576 and 131.683 and 195.129"},
      {"measurement": "SM 42:2 content of cerebellum", "setting": "[2]", "value": "687.51 and 1423.11 and 718.618 and 898.145 and 1023.47 and 688.732 and 582.437 and 593.074 and 472.141 and 503.36"},
      {"measurement": "C18:0 HexCer in cerebellum, lower than vehicle", "setting": "HFD group, adjusted P = 0.16", "value": 45, "unit": "%"},
      {"measurement": "C18 ceramide or SM levels in cerebellum", "setting": "chow or HFD", "value": "did not affect"}
    ]}
  ]
}
